Tests used:
H9c2 cells [1] = assay: LDH leakage of H9c2 cells injured by H2O2; assay type: cell-based; conditions: PAG group, PAG 10^−4 mol/L
Protocol: (§1) H9c2 cells were cultured in DMEM with 10% of fetal bovine serum, 37 degree C. and 5% CO2 incubator. The monolayer culture was split at a 1:4 ratio or harvested to perform experiments when confluence was 70-80%. Adjust the density of the cells to […] and inoculate the cells on a 96 well plate.
(§2) H2O2 injury (Model) group, no SAC analogues treatment, under H2O2 200 μmol/L for 2 hours.
(§3) PAG group, PAG 10^−4/mol/L
(§4) SPRC dosage groups: SPRC 1E-7, SPRC 1E-6, SPRC 1E-5, the cell groups were treated with SPRC dosages of 10^−7 mol/L, 10^−6 mol/L, 10^−5 mol/L respectively.
(§5) SPRC dosage+PAG groups: the cell group was treated with SPRC dosages of 10^−5 mol/L and PAG 10^−4 mol/L.
The cell samples (10^6 cells/sample) from each group were lysed under sterilized condition, and LDH contents in each samples were tested by pyruvic acid production method.

H9c2 cells [2] = assay: Mn-SOD activity of H9c2 cells injured by H2O2; assay type: cell-based; conditions: PAG group, PAG 10^−4 mol/L
Protocol: (§6) H9c2 cells were cultured same as Example 12, the cells were then divided into the groups same as Example 12.
(§7) The cells were lysed under sterilized condition, and lipid peroxidation experiments on the samples were performed. […] The effect of SPRC could be blocked by PAG, indicating SPRC mediates its effect on H9c2 cell by way of endogenous H2S.

H9c2 cells [3] = assay: MDA content of H9c2 cells injured by H2O2; assay type: cell-based; conditions: PAG group, PAG 10^−4 mol/L
Protocol: as §6, §7

H9c2 cells [4] = assay: H9c2 cell viability by MTT method after H2O2 injury; assay type: cell-based; conditions: PAG group, PAG 10^−4 mol/L
Protocol: as §1
Control group, no SAC analogues treatment, no H2O2 injured process.
as §2, §3, §4, §5
H9c2 cell viability was assessed by MTT method. […] PAG is able to block the effect of SPRC.

CSE mRNA = assay: RT-PCR of CSE mRNA in left ventricle; assay type: in vivo, SD rats; conditions: MI rats, 50 mg/Kg/day
Source text: (§8) Animals were assigned and prepared the same as in Example 7, and dosages of SPRC and SAC were used the same in this example as in Example 7.
(§9) To further verify the effects of SPRC and SAC, the expressions of Bcl-2, Bax and CSE mRNA were accessed by RT-PCR (FIG. 17). An isoform of the CSE gene was detected (GenBank; access no. AY641456). The relative amounts of CSE mRNA in Left ventricular subjected to MI were increase 3.3-fold and 1.5-fold following SPRC and SAC exposure as compared to the MI group.

Bax = assay: Western blot of Bax protein in left ventricle; assay type: in vivo, SD rats; conditions: MI rats, 50 mg/Kg/day, p<0.01
Source text: as §8

rats following MI injury [5] = assay: Infarct size after TTC staining in rats following MI injury; assay type: in vivo, SD rats; conditions: 50 mg/Kg/day intraperitoneal, 7 days before and 2 days after ligation, 48 h after surgery, saline 36.0±1.3%
Protocol: (§10) SPRC and SAC were dissolved in saline (vehicle). Male SD rats (weight 200-250 g) were randomly assigned to […] treatment groups: group (1) Sham group: Sham-treated with saline (n=4), (2) Sham+SPRC group: Sham-treated with SPRC (50 mg/Kg/day) (n=4), (3) Sham+SAC group: Sham-treated with SAC (50 mg/Kg/day) (n=4), (4) MI group: MI treated with saline (n=8), (5) MI+SPRC group: MI treated with SPRC (50 mg/Kg/day) (n=8), (6) MI+SAC group: MI treated with SAC (50 mg/Kg/day) (n=8). Rats were pre-treated for seven days with each SAC analogues respectively via an intraperitoneal injection once daily before they were used for MI model studies. […] Briefly, the rats were anesthetized with 7% choral hydrate (60 mg/kg intraperitoneal injection), endotracheally intubated and mechanically ventilated with room air, respiratory rate 100 breaths/min, tidal volume 2.5 ml with a rodent ventilator (DHX-150, China). ECG was recorded in the anaesthetized animal for a period of one minute using the Animal Mflab200 amplifier (Produced in China). A left thoracotomy was performed and the third intercostal space was exposed. […] Then incisions were sutured and the chests were closed. […] Forty eight hours after the surgery, ECG was recorded for each rat in each group. […] To evaluate the effect of SPRC and SAC on MI, infarct size were measured after TTC staining (FIG. 12).

rats following MI injury [6] = assay: ECG in rats following MI injury; assay type: in vivo, SD rats; conditions: 50 mg/Kg/day, day 10, 48 hr after the induction of MI
Protocol: as §10

rats following MI injury [7] = assay: Serum LDH in rats (sham or MI); assay type: in vivo, SD rats; conditions: Sham rats; 50 mg/Kg/day intraperitoneal
Protocol: as §8
(§11) Serum CK levels were detected with diagnostic kit (NJBI, China) according to the instructions. LDH were determined calorimetrically with a spectrophotometer. Lipid peroxidation was measured in terms of MDA content using the thiobarbituric acid (TBA) assay. […] With regard to lipid peroxidation, the levels of MDA in MI groups increased at 48 h after myocardial infarction. […] (FIG. 14)

Bcl-2 = assay: Western blot of Bcl-2 protein in left ventricle; assay type: in vivo, SD rats; conditions: MI rats, 50 mg/Kg/day, p<0.01
Source text: as §8

rats following MI injury [8] = assay: Serum CK in rats (sham or MI); assay type: in vivo, SD rats; conditions: Sham rats; 50 mg/Kg/day intraperitoneal
Protocol: as §8, §11

Bax mRNA = assay: RT-PCR of Bax mRNA in left ventricle; assay type: in vivo, SD rats; conditions: MI rats, 50 mg/Kg/day, p<0.05
Source text: as §8, §9

Bcl-2 mRNA = assay: RT-PCR of Bcl-2 mRNA in left ventricle; assay type: in vivo, SD rats; conditions: MI rats, 50 mg/Kg/day, p>0.05
Source text: as §8, §9

rats following MI injury [9] = assay: SOD activity in plasma of rats (sham or MI); assay type: in vivo, SD rats; conditions: 50 mg/Kg/day intraperitoneal
Protocol: as §8, §11

CSE [10] = molecular target: T1, CSE (Rattus norvegicus, UniProt P18757); assay: Left ventricular CSE activity in tissue homogenates of rats; assay type: in vivo, SD rats; conditions: 50 mg/Kg/day; for CSE activity: left ventricle
T1 construct: from tissue; host or cells: rat left ventricle (homogenate), myocardial infarction model
T1 sequence (P18757 whole entry): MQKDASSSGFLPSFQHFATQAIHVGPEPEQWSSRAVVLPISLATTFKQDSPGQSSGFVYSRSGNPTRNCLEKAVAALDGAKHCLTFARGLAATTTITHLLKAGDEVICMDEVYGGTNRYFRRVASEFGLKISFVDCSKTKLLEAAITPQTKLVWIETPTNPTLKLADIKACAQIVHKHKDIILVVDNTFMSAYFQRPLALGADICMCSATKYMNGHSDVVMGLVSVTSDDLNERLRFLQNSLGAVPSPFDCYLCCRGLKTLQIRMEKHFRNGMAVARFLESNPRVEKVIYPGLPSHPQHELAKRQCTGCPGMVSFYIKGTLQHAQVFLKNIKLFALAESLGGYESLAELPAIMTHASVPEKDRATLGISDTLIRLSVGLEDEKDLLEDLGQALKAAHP
Protocol: as §8
(§12) The plasma levels of H2S in each treatment group were determined since CSE mediates the endogenous production of H2S in mammals. Plasma H2S concentrations in MI group rats at 48 h after MI induction were 34.7±5.6 μM (n=8). […] Left ventricular CSE activity was analyzed in the tissue homogenates from each treatment group (n=6). CSE activity was 1.58±0.15 μmol/g protein/hr in left the ventricular tissues in MI group and 2.19±0.32 μmol/g protein/hr in the MI+SAC treated rats.
SPRC administered rats had the highest CSE activity of 2.58±0.07 μmol/g protein/hr (p<0.01) (FIG. 15B). This observation correlated with the observed increases in H2S concentrations in the same treatment groups.

rats following MI injury [11] = assay: MDA content (TBA assay) in rats (sham or MI); assay type: in vivo, SD rats; conditions: Sham rats; 50 mg/Kg/day intraperitoneal
Protocol: as §8, §11

CSE [12] = assay: Western blot of CSE protein in left ventricle; assay type: in vivo, SD rats; conditions: MI rats, 50 mg/Kg/day, p<0.01
Source text: as §8

rats following MI injury [13] = assay: Plasma H2S levels in rats (sham or MI); assay type: in vivo, SD rats; conditions: 50 mg/Kg/day intraperitoneal
Protocol: as §8, §12

myocardial cells [14] = assay: SOD activity (Hydroxylamine method) in hypoxia/reoxygenation injured myocardial cells; assay type: cell-based, Sprague-Dawley (SD) rat
Protocol: Myocardial cell samples were obtained from the same procedure of Example 1, the experiment groups were divided and hypoxia/reoxygenation experiments were performed on Control group, Vehicle group, SAC and analogue groups, same as the experiments in Example 1 with the same dosages and same conditions. Myocardial cells were obtained from each sample (10^6 myocardial cells/sample) from the Control group, Vehicle group, SAC and analogue groups. The cells were lysed under sterilized condition, and SOD (superoxide dismutase) activities in each sample of the cells were determined by Hydroxylamine method (a conventional method well known in the arts) using each microgram of protein per 1 milliliter reaction solution inhibits SOD activity to its 50% of original activity, in which the amount of SOD used in the reaction as standard of 1 unit of SOD activity.

myocardial cells [15] = assay: Lipid peroxidation (MDA, TBA) in hypoxia/reoxygenation injured myocardial cells; assay type: cell-based, Sprague-Dawley (SD) rat; conditions: 10^−5 mol/L
Protocol: Myocardial cell samples were obtained from the same procedure of Example 1, the experiment groups were divided and hypoxia/reoxygenation experiments were performed on Control group, Vehicle group, SAC and analogue groups, same as the experiments in Example 1 with the same dosages and same conditions. Myocardial cells were obtained from each sample (10^6 myocardial cells/sample) from the Control group, Vehicle group, SAC and analogue groups. The cells were lysed under sterilized condition, and lipid peroxidation experiments on the samples were performed. Since oxygen free radical attacks poly unsaturated fatty acid in biomembrane, inducing lipid peroxidation and producing MDA (malondialdehyde). MDA can react with thiobarbituric acid (TBA), forms red product, which can be detected in spectrophotometer at 532 nm. […] The inhibition effect could be reversed by PAG.

For `C#CCC(N)C(=O)O` (racemic) [PAG, DL-propargylglycine, reference compound], the “LDH Leakage” value (H9c2 cells [1]) was 63.4 ± 1.2%, the “Mn-SOD Activity” value (H9c2 cells [2]) was 7.57 ± 0.83 U/mgprot and the “MDA Content” value (H9c2 cells [3]) was 2.71 ± 0.26 nmol/mgprot. The “H9c2 Cell Survive” value (H9c2 cells [4]) was 58.9 ± 1.2%.

For `C=CCSC[C@H](N)C(=O)O` [SAC, S-Allyl-Cysteine], the “relative amounts of CSE mRNA, increase as compared to the MI group” value (CSE mRNA) was 1.5 fold, the Bax protein levels (Bax) was “down-regulated” and the “infarct size/total area of myocardium” value (rats following MI injury [5]) was 24.9±1.9%. The “ST-segment elevation in ECG” value (rats following MI injury [6]) was “less elevated ST-segment”, the LDH (rats following MI injury [7]) was 2599 ± 212 U/L and the Bcl-2 protein expression (Bcl-2) was “up-regulated”. The CK (rats following MI injury [8]) was 0.250 ± 0.019 U/ml, the Bax gene expression (Bax mRNA) was “down regulated” and the Bcl-2 gene expression (Bcl-2 mRNA) was “no significant differences”. It also gave an SOD (rats following MI injury [9]; MI rats, 48 h after MI) of 107.1 ± 5.4 U/ml, an SOD (rats following MI injury [9]; Sham rats) of 159.8 ± 4.8 U/ml and a CSE activity (CSE [10]; MI rats) of 2.19 ± 0.32 μM/mgprot. For the same compound, the “Left ventricular CSE activity” value (CSE [10]; MI rats, left ventricular tissue homogenates, MI group 1.58±0.15) was 2.19±0.32 μmol/g protein/hr, the CSE activity (CSE [10]; Sham rats) was 2.31 ± 0.24 μM/mgprot and the MDA (rats following MI injury [11]) was 3.57 ± 0.31 nmol/mL. For the same compound, the CSE protein expression (CSE [12]) was “up-regulated”, the “H2S concentration in plasma” value (rats following MI injury [13]; MI rats, 48 h after MI induction, 50 mg/kg/day) was 61.1 ± 3.6 µM and the “H2S concentration in plasma” value (rats following MI injury [13]; Sham rats) was 65.2 ± 4.4 µM.

For `CCCCSC[C@H](N)C(=O)O` [SBC, S-butyl-L-cysteine], the “Cu—Zn SOD activity in cytoplasm” value (myocardial cells [14]; 10^−5 mol/L) was “able to elevate” and the “effect of PAG on elevating Cu—Zn SOD activity” value (myocardial cells [14]; with PAG) was “PAG also reversed the effect”.

With `CCSC[C@H](N)C(=O)O` [SEC, S-ethyl-L-cysteine] the “Mn-SOD activity in mitochondria” value (myocardial cells [14]; 10^−5 mol/L) was “able to elevate”, the “effect of PAG on elevating Mn-SOD activity” value (myocardial cells [14]; with PAG) was “PAG also reversed” and the “lipid peroxidation (MDA)” value (myocardial cells [15]) was “inhibited”.

For `CCCSC[C@H](N)C(=O)O` [SPC, S-propyl-L-cysteine], the “Cu—Zn SOD activity in cytoplasm” value (myocardial cells [14]; 10^−5 mol/L) was “able to elevate”, the “effect of PAG on elevating Cu—Zn SOD activity” value (myocardial cells [14]; with PAG) was “PAG also reversed the effect” and the “lipid peroxidation (MDA)” value (myocardial cells [15]) was “inhibited”.

For `CCCCCSC[C@H](N)C(=O)O` [SPEC, S-pentyl-L-cysteine], the “Cu—Zn SOD activity in cytoplasm” value (myocardial cells [14]; 10^−5 mol/L) was “able to elevate” and the “effect of PAG on elevating Cu—Zn SOD activity” value (myocardial cells [14]; with PAG) was “PAG also reversed the effect”.

Source: patent US8623919B2, “Method of synthesizing S-allyl-cysteine analogues and their therapeutic application in treating myocardial infarction” (Fudan University, priority 2007, dated 2014)
